Where two headings read alike, the source gives them in different places. A value given as a limit tells only on which side of the number the result lay.

CATDS, potency estimated from few doses and CATDSCK2 data for nine compounds are collected here from article PMC11062922 (Nature Chemical Biology, 2023).

One experiment deals with T1, ATM (Homo sapiens, UniProt Q13315).
T1 construct: endogenous in cells
Description: Kinobeads two-dose competition binding: ATM. Conditions: for CATDS: target ATM. The text has this: (§1) Briefly, Kinobeads comprise seven broad-spectrum small molecule kinase inhibitors immobilized on Sepharose beads. […]. Compounds of interest are set to compete for target protein binding with Kinobeads in the lysate and the amount of a given protein bound to Kinobeads in the presence of a compound can be quantified relative to a dimethylsulfoxide (DMSO) vehicle control by label-free mass spectrometry. This assay measures the physical interaction of a compound with thousands of endogenous proteins in parallel and, when systematically increasing the concentration of competitor, enables the calculation of an apparent interaction constant ( Kdapp ) for each compound and protein.
(§2) Kinobeads pulldown experiments were performed as described previously[13],[14],[17] with minor modification. […] The protein concentration was adjusted to 5 mg ml^−1. Kinase inhibitors were spiked into 0.5 ml of cell lysate at final concentrations of 100 and 1,000 nM (or DMSO, 0.3, 1, 3, 10, 30, 100, 300 and 1,000 nM for full dose experiments). […] Lysates were incubated for 45 min at 4 °C. Subsequently, lysates were incubated with Kinobeads ε (17.5 µl of settled beads) for 30 min at 4 °C. To assess the degree of protein depletion from the lysates by Kinobeads, the flow through of the DMSO control was recovered for a pulldown of pulldown experiment where the lysate was incubated a second time with fresh Kinobeads. Beads were washed in three steps with buffer containing 0.4%, 0.2% and no IGEPAL. Bound proteins were reduced with 50 mM DTT in 8 M Urea, 40 mM Tris-HCl pH 7.4 for 30 min at room temperature. After alkylation with 55 mM chloroacetamide, the urea concentration was reduced to 1–2 M and proteins were digested with trypsin. Acidified peptides were desalted and concentrated using SepPak tC18 µEluation plates (Waters). Samples were frozen, dried by vacuum centrifugation and stored at −20 °C.
(§3) Each kinase inhibitor was processed together with all DMSO controls of the same plate. Additionally, each search was supplemented with five high quality DMSO controls for consistent peptide identification and protein grouping. The resultant file (proteinGroups.txt) was used for subsequent filtering, normalization, data visualization and target annotation that was automatically performed by a data processing pipeline built in house that used R (including the ‘drc’ and ‘heatmap’ packages). First, reverse hits, potential contaminants and not quantified proteins in the DMSO control samples were discarded. Protein raw and label-free quantification intensities were normalized to the median DMSO control intensity to obtain relative residual binding intensities for each protein group at every inhibitor concentration and standard deviations of the DMSO control intensity were calculated. IC50 values were estimated based on the following equation IC50=I×100−inhibition/inhibition where [I] is the inhibitor concentration that was used for IC50 calculation and ‘inhibition’ the relative residual binding intensity. […]. Estimated Kdapp values were then calculated by multiplying the estimated IC50 values with a protein-dependent correction factor that was limited to a maximum value of one. The correction factor accounts for the depletion of a target protein from the lysate by Kinobeads. The depletion can be measured by the ratio of the amount of protein captured in two consecutive pulldowns of the same DMSO control lysate. In this study, correction factors were determined in separate experiments using the same lysate mixture and the same bead batch. Correction factors were set to the median of all correction factors. Targets of kinase inhibitors were annotated using the previously published random forest classifier. A training data set was annotated manually. […]

A further experiment deals with T2, GSK3B (Homo sapiens, UniProt P49841).
T2 construct: endogenous in cells
Description: Kinobeads two-dose competition binding: GSK3B. Conditions: for CATDS: target GSK3B.

Another experiment addresses T3, CSNK2A1 (CK2) (Homo sapiens, UniProt P68400).
T3 construct: endogenous in cells
The experiment in a line: Kinobeads two-dose competition binding: CK2 (CSNK2A1).

Another experiment deals with T4, ACAD11 (Homo sapiens, UniProt Q709F0).
T4 construct: endogenous in cells
T4 sequence (Q709F0 1-780): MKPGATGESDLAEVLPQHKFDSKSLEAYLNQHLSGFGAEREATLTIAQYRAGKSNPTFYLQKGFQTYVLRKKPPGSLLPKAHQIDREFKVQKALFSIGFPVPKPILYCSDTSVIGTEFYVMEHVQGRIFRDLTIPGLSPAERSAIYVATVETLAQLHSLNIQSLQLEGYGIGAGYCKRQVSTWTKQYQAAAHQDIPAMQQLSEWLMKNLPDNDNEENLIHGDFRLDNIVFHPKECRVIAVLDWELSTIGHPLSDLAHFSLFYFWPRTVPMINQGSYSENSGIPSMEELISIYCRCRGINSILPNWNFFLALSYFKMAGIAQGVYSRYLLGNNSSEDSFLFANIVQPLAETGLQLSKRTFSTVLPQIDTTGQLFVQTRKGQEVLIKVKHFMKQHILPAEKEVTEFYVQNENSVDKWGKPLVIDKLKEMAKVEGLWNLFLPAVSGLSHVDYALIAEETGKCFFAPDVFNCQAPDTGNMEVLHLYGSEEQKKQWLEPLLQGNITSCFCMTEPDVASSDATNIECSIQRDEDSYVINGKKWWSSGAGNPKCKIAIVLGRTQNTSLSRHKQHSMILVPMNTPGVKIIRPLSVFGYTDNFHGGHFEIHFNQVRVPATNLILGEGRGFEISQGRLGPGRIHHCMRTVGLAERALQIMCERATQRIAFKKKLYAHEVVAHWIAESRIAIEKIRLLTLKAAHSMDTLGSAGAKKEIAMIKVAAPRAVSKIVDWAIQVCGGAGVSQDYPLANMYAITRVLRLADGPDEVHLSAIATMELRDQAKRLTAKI
The experiment in a line: Kinobeads two-dose competition binding: ACAD11. Conditions: sheet CATDS matrix 2; Gene Name ACAD11.

Another experiment concerns the target T5, NUAK1 (Homo sapiens, UniProt O60285).
T5 construct: to maximize the representation of endogenous proteins; endogenous in cells
T5 sequence (O60285 1-661): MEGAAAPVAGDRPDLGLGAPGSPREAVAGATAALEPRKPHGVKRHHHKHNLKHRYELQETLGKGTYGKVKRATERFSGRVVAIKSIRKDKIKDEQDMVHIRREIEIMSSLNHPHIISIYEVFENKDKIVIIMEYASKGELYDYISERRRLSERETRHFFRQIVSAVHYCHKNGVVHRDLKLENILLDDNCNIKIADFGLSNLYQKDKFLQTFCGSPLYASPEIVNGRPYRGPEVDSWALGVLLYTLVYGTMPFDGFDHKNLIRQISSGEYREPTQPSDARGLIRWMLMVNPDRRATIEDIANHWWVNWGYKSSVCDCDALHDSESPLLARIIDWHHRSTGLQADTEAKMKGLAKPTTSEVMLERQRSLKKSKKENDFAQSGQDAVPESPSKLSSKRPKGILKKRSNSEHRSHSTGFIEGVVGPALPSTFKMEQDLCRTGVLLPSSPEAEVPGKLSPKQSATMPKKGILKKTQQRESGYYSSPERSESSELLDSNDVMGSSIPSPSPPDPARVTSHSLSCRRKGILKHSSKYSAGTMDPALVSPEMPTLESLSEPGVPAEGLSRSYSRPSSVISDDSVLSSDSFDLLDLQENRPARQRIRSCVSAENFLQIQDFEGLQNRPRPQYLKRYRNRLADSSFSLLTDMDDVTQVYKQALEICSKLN
Description: Kinobeads two-dose competition binding: NUAK1. Conditions: for CATDS: target NUAK1.
Source text: as §1, §2, §3

T2 sequence (P49841 whole entry): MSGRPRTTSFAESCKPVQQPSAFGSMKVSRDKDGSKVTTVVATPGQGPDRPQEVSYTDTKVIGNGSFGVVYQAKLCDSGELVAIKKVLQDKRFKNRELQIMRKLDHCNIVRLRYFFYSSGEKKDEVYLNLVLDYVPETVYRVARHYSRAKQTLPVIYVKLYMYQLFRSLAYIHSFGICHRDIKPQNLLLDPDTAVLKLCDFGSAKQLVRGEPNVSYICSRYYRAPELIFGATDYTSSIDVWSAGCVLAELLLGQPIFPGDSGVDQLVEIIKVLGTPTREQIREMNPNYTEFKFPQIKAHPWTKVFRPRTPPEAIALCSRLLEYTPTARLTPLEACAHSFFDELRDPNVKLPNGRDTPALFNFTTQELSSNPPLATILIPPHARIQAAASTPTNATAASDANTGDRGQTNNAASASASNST
T1 sequence (Q13315 whole entry): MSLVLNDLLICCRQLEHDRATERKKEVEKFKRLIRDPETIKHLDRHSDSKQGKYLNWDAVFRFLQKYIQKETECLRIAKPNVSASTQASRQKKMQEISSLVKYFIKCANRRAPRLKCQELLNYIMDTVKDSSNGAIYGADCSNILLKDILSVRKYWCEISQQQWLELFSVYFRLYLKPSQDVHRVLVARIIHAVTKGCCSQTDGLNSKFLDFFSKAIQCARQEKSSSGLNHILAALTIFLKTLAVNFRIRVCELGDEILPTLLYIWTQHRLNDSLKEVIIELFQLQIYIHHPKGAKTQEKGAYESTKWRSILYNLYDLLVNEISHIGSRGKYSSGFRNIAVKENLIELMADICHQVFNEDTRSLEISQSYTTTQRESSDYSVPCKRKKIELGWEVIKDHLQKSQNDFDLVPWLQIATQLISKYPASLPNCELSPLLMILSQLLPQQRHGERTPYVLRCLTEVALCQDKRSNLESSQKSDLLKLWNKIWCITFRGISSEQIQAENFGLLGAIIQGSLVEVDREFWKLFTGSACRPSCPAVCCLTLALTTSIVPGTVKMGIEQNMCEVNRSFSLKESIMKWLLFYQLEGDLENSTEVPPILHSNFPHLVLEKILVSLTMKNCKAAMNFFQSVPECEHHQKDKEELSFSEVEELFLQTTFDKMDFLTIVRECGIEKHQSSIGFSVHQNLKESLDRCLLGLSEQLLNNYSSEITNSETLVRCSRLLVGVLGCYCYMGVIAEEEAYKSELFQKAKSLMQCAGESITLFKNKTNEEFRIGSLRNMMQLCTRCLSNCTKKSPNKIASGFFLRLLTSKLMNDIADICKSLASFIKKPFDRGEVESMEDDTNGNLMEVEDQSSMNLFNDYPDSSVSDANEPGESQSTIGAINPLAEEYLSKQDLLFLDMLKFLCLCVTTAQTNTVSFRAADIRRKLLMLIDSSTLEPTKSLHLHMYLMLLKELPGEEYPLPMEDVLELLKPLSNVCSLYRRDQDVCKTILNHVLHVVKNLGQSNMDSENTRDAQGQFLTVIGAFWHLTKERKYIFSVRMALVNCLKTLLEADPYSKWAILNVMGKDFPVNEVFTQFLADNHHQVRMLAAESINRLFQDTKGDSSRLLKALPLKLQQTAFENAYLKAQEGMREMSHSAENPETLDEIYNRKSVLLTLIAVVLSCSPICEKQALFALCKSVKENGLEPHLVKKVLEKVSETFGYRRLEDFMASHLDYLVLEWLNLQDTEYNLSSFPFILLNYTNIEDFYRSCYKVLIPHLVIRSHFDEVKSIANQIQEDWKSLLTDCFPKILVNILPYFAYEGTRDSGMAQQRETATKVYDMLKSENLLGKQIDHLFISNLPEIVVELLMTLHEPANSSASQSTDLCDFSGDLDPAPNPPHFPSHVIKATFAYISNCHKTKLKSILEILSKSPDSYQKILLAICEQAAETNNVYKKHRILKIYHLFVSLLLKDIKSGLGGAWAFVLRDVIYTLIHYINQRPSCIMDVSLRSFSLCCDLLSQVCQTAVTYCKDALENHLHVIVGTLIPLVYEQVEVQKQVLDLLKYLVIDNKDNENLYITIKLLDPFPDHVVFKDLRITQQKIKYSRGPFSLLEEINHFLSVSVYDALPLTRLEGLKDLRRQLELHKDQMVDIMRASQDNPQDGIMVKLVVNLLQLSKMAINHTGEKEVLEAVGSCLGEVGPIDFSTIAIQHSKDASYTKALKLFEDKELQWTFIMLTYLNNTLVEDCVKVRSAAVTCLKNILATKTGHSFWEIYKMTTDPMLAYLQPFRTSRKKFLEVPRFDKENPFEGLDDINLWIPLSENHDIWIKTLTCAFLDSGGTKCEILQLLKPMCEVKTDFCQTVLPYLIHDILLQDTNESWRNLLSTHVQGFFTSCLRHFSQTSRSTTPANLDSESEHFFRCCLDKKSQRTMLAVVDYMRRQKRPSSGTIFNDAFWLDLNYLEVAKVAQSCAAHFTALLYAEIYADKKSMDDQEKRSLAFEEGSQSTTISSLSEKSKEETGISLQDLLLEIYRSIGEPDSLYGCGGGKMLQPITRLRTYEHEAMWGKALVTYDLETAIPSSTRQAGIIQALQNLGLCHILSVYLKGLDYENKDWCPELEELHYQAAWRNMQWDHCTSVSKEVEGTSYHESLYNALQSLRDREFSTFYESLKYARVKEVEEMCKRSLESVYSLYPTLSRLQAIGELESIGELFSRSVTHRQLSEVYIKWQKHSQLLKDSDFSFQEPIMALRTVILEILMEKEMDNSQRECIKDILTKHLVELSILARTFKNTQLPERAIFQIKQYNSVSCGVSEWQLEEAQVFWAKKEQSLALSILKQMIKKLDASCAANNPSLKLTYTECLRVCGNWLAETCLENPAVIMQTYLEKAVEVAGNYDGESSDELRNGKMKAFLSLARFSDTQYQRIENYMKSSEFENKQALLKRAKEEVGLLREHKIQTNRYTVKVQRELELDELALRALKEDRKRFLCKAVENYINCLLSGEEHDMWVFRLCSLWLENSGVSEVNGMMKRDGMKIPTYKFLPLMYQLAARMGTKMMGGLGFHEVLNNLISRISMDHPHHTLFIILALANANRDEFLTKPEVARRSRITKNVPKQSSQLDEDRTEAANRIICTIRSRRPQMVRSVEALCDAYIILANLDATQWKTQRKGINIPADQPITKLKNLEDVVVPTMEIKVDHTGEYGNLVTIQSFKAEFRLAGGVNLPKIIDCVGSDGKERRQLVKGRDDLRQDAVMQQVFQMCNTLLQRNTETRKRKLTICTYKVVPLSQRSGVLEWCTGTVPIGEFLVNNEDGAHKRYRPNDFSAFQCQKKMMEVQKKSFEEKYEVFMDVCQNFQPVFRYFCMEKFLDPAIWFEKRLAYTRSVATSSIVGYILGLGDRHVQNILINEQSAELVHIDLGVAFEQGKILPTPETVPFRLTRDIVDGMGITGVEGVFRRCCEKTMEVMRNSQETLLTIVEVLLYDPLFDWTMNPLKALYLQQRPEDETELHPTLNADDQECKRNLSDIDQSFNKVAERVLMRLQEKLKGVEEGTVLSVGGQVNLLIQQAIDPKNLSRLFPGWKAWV
T3 sequence (P68400 whole entry): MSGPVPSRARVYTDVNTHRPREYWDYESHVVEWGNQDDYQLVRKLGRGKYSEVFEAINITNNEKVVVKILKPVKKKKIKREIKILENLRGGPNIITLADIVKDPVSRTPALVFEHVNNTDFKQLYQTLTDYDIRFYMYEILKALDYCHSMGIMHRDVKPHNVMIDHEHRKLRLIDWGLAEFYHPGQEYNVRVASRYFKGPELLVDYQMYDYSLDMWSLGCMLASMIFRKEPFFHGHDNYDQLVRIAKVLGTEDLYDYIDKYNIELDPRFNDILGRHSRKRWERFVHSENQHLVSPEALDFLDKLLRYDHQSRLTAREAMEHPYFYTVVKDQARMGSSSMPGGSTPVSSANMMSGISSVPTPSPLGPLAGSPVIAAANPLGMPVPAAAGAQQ

Consider `Nc1ncnc2[nH]c(-c3ccccc3)nc12` [AH5015_KCGS], for which the CATDS on ATM turned out to be 0; on GSK3B, 0.07826; on CSNK2A1 (CK2) (target CSNK2A1;CSNK2A3), 0; on ACAD11, 0; on NUAK1, 0.
As to `C[C@]12O[C@H](C[C@]1(O)CO)n1c3ccccc3c3c4c(c5c6ccccc6n2c5c31)CNC4=O` [Lestaurtinib], the potency estimated from few doses was 295 nM on GSK3B (read-out: Lestaurtinib Drugmatrix value, Gene Name GSK3B) and 291 nM on CSNK2A1 (CK2) (read-out: Lestaurtinib Drugmatrix value, Gene Name CSNK2A1;CSNK2A3, target CSNK2A1;CSNK2A3, each column = one Lestaurtinib control replicate (batch_R1-R3)).
On to `CCc1cc2c(cc1N1CCC(N3CCOCC3)CC1)C(C)(C)c1[nH]c3cc(C#N)ccc3c1C2=O` [Alectinib], for which the CATDS at ATM, on GSK3B, on CSNK2A1 (CK2) (target CSNK2A1;CSNK2A3), at ACAD11 and at NUAK1 was 0 in each case.
For `N#CC1(c2ccc(NC(=O)c3cccnc3NCc3ccncc3)cc2)CCCC1` [Apatinib], the CATDS on ATM, at GSK3B, at CSNK2A1 (CK2) (target CSNK2A1;CSNK2A3), at ACAD11 and on NUAK1 was 0 in each case.
Consider `CCN1CCN(Cc2ccc(Nc3ncc(F)c(-c4cc(F)c5nc(C)n(C(C)C)c5c4)n3)nc2)CC1` [Abemaciclib], for which the CATDS on ATM is reported as 0; at CSNK2A1 (CK2) (target CSNK2A1;CSNK2A3) it was 0.05816; on ACAD11 it was 0; at NUAK1, 0.
As to `C#Cc1cccc(Nc2ncnc3cc(OC)c(OC4CCN(C)CC4)cc23)c1` [BI00007366], the CATDS at ACAD11 was 0.
For the compound `CN(C)C/C=C/C(=O)Nc1cc2c(Nc3ccc(F)c(Cl)c3)ncnc2cc1O[C@H]1CCOC1` [Afatinib], the CATDS at ATM, on GSK3B, at ACAD11 and at NUAK1 was 0 throughout.
As to `COc1cc(Nc2ncc3c(C)nc(-c4cc5ccccc5[nH]4)n3n2)cc(OC)c1OC` [GW869516X], at CSNK2A1 (CK2) (Kinobeads two-dose screen (binding), read-out: Kdapp CK2 (CSNK2A1)), the potency estimated from few doses was 78 nM. At CSNK2A1 (CK2) (selectivity score from Kinobeads two-dose data), this compound registered a CATDSCK2 of 1.
Turning to `CC(C)N1CC(=O)N(C)c2cnc(Nc3cccc(S(=O)(=O)CCN4CCOCC4)c3)nc21` [BI00009348], the potency estimated from few doses was 112 nM at ATM (Kinobeads two-dose, Drugmatrix - all 2, read-out: apparent Kd ATM); 783 nM at GSK3B (Kinobeads two-dose, Drugmatrix - all 2, read-out: apparent Kd GSK3B); over 1000 nM on NUAK1 (Kinobeads two-dose, Drugmatrix - all 2, read-out: apparent Kd NUAK1). The CATDS on ACAD11 was 0.
